Laboratory results as given in US20220289732A1, “HETEROCYCLIC WDR5 INHIBITORS AS ANTI-CANCER COMPOUNDS” (NOVARTIS AG, priority 2019, published 2022).

What was measured:
WDR5 = WDR5 (Homo sapiens, UniProt P61964); assay: WDR5 HTRF binding assay; details: read-out: (a) WDR5 HTRF Pep Val v.1[Inhibitor/IC50]Qualified AC50
Summary of the method: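 6 nM WDR5 and 20 nM biotin-MLL1 WIN peptide (3762-3773) were incubated with compound (12-point, 3-fold dilutions) in pH 7.5 Hepes/NaCl/DTT buffer for 20 min at rt. Streptavidin-APC plus anti-His-Eu were then added for 1 hr, with HTRF read at 665/615. IC50 was fit from control-normalized activity; the counter assay used 15 nM biotin-PEG-His peptide.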

[1] = biological target: wild type MLL1 four-member complex (MLL1-4C) (Homo sapiens, UniProt P61964); assay: MLL1 LC-MS assay (SAH production); assay type: biochemical; details: read-out: (b) MLL LCMS Peptide Val.v.1 Qualified AC50
Summary of the method: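 MLL1-4C (30 nM final) was preincubated 20 min with compound (3-fold dilutions, 8 or 12 points) and SAM in Tris-HCl pH 8.0 buffer. H3K4me0 peptide (histone H3[1-21]-biotin) was then added, giving final 2.5 μM SAM and 10 μM substrate, and reactions ran 120 min at rt. After TFA/d4-SAH quench, SAH was quantified by LC-MS/MS and IC50 fitted from control-normalised activity.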

MV4-11 cells = assay: MV4-11 6-day cell growth CTG (CellTiter-Glo) assay; assay type: cell-based; details: Homo sapiens, MV4-11, 144 h, 6 days, read-out: (c) MLL/WDR5 cell proliferation assay//MLL/WDR5 proliferation MV4:11 Qualified AC50
Summary of the method: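 Exponentially growing MV4-11 AML cells (RPMI 1640, 10% FBS) seeded at 300 cells/well with 12-point 1:3 compound dilutions, top final concentration 50 μM. Viability read by CellTiter-Glo luminescence after 6 days at 37° C; % inhibition vs DMSO-only wells fitted to dose-response for IC50.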

SMILES	IC50 (WDR5) [nM]	AC50 [1] [nM]	AC50 (MV4-11 cells) [nM]
CCOc1cc([C@H](C)N2CCc3c(cc(CCN(C)CC)cc3-c3cc(C)cnc3Cl)C2=O)ncc1C#N [Example 118, (S)-6-(1-(5-(2-chloro-5-methylpyridin-3-yl)-7-(2-(ethyl(methyl)amino)ethyl)-1-oxo-3,4-dihydroisoquinolin-2(1H)-yl)ethyl)-4-ethoxynicotinonitrile]	< 10	10 to 1000	10 to 1000
CCOc1cc([C@H](C)N2CCc3c(cc(CCN(C)CC)cc3-c3cccnc3C(F)F)C2=O)ncc1C#N [Example 119, (S)-6-(1-(5-(2-(difluoromethyl)pyridin-3-yl)-7-(2-(ethyl(methyl)amino)ethyl)-1-oxo-3,4-dihydroisoquinolin-2(1H)-yl)ethyl)-4-ethoxynicotinonitrile]	< 10	10 to 1000	10 to 1000
CCOc1cc([C@H](C)N2CCc3c(cc(CCN(C)CC)cc3-c3cc(CO)cnc3Cl)C2=O)ncc1F [Example 120, (S)-5-(2-chloro-5-(hydroxymethyl)pyridin-3-yl)-2-(1-(4-ethoxy-5-fluoropyridin-2-yl)ethyl)-7-(2-(ethyl(methyl)amino)ethyl)-3,4-dihydroisoquinolin-1(2H)-one]	< 10	10 to 1000	10 to 1000
CCOc1cc([C@H](C)N2CCc3c(cc(CCN(C)CC)cc3-c3cn(C)nc3C)C2=O)ncc1Cl [Example 121, (S)-2-(1-(5-chloro-4-ethoxypyridin-2-yl)ethyl)-5-(1,3-dimethyl-1H-pyrazol-4-yl)-7-(2-(ethyl(methyl)amino)ethyl)-3,4-dihydroisoquinolin-1(2H)-one]	< 10	10 to 1000	10 to 1000
CCOc1cc([C@H](C)N2CCc3c(cc(CCN(C)CC)cc3-c3ccc(N)nc3C)C2=O)ncc1C#N [Example 122, (S)-6-(1-(5-(6-amino-2-methylpyridin-3-yl)-7-(2-(ethyl(methyl)amino)ethyl)-1-oxo-3,4-dihydroisoquinolin-2(1H)-yl)ethyl)-4-ethoxynicotinonitrile]	< 10	10 to 1000	10 to 1000
CCN(C)CCc1cc2c(c(-c3cn(C)nc3C)c1)CCN([C@@H](C)c1cnc(F)c(OC)c1)C2=O [Example 123, (S)-5-(1,3-dimethyl-1H-pyrazol-4-yl)-7-(2-(ethyl(methyl)amino)ethyl)-2-(1-(6-fluoro-5-methoxypyridin-3-yl)ethyl)-3,4-dihydroisoquinolin-1(2H)-one]	< 10	10 to 1000	10 to 1000
CCOc1cc([C@H](C)N2CCc3c(cc(CCN(C)CC)cc3-c3cc(CO)cnc3Cl)C2=O)ncc1C#N [Example 124, (S)-6-(1-(5-(2-chloro-5-(hydroxymethyl)pyridin-3-yl)-7-(2-(ethyl(methyl)amino)ethyl)-1-oxo-3,4-dihydroisoquinolin-2(1H)-yl)ethyl)-4-ethoxynicotinonitrile]	< 10	10 to 1000	10 to 1000
CCOc1cc([C@H](C)N2CCc3c(cc(CCN(C)CC)cc3-c3cn(C)c(=O)c(C)c3C)C2=O)ncc1C#N [Example 125, (S)-4-ethoxy-6-(1-(7-(2-(ethyl(methyl)amino)ethyl)-1-oxo-5-(1,4,5-trimethyl-6-oxo-1,6-dihydropyridin-3-yl)-3,4-dihydroisoquinolin-2(1H)-yl)ethyl)nicotinonitrile]	< 10	10 to 1000	10 to 1000
CCOc1cc([C@H](C)N2CCc3c(cc(CCN(C)CC)cc3-c3cn(C)nc3C(F)F)C2=O)ncc1C#N [Example 126, (S)-6-(1-(5-(3-(difluoromethyl)-1-methyl-1H-pyrazol-4-yl)-7-(2-(ethyl(methyl)amino)ethyl)-1-oxo-3,4-dihydroisoquinolin-2(1H)-yl)ethyl)-4-ethoxynicotinonitrile]	< 10	10 to 1000	10 to 1000
